# According to patent US7417156B2, “Orally active, antimalarial, anticancer, artemisinin-derived trioxane dimers” (Johns Hopkins University, priority 2002, dated 2008):
# Key:
# [1] = test system: chloroquine-sensitive P. falciparum (NF54); experiment: Antimalarial activity in vitro, [3H]hypoxanthine incorporation; format: cell-based; details: Table I; NF54 strain; read-out: IC50
# [2] = test system: 60 cell line panel; format: cell-based
# [3] = test system: K-562; experiment: NCI 60 cell line panel screen (SRB); format: cell-based, human
# [4] = test system: HOP-62; experiment: NCI 60 cell line panel screen (SRB); format: cell-based, human
# [5] = test system: NCI-H460; experiment: NCI 60 cell line panel screen (SRB); format: cell-based, human
# [6] = test system: HCT-116; experiment: NCI 60 cell line panel screen (SRB); format: cell-based, human
# [7] = test system: SF-539; experiment: NCI 60 cell line panel screen (SRB); format: cell-based, human
# [8] = test system: SNB-19; experiment: NCI 60 cell line panel screen (SRB); format: cell-based, human
# [9] = test system: SNB-75; experiment: NCI 60 cell line panel screen (SRB); format: cell-based, human
# [10] = test system: MALME-3M; experiment: NCI 60 cell line panel screen (SRB); format: cell-based, human
# [11] = test system: SK-MEL-2; experiment: NCI 60 cell line panel screen (SRB); format: cell-based, human
# [12] = test system: OVCAR-3; experiment: NCI 60 cell line panel screen (SRB); format: cell-based, human
# [13] = test system: OVCAR-8; experiment: NCI 60 cell line panel screen (SRB); format: cell-based, human
# [14] = test system: SK-OV-3; experiment: NCI 60 cell line panel screen (SRB); format: cell-based, human; details: SK-OV-3 (Ovarian Cancer)
# [15] = test system: CAKI-1; experiment: NCI 60 cell line panel screen (SRB); format: cell-based, human
# [16] = test system: RXF 393; experiment: NCI 60 cell line panel screen (SRB); format: cell-based, human
# [17] = test system: PC-3; experiment: NCI 60 cell line panel screen (SRB); format: cell-based, human
# [18] = test system: MDA-MB-435; experiment: NCI 60 cell line panel screen (SRB); format: cell-based, human
# [19] = mean value over the 60 cell line panel
smiles,measurement,setting,value
"C[C@@H]1CC[C@H]2[C@@H](C)C(CC(O)(CC3OC4O[C@]5(C)CC[C@H]6[C@H](C)CC[C@@H]([C@H]3C)C46OO5)c3ccc(C(=O)O)cc3)OC3O[C@]4(C)CCC1C32OO4 (stereo partly shown) [Compound 11b, bis-trioxane tertiary alcohol benzoic acid]",IC50,[1],2.1 nM
same,Log10GI50 Delta,[2],0.93
same,Log10GI50 Range,[2],3.52
same,Log10LC50 Delta,[2]; 60 cell line panel,1.58
same,Log10LC50 Range,[2]; 60 cell line panel,1.65
same,Log10TGI50 Delta,[2]; 60 cell line panel,3.18
same,Log10TGI50 Range,[2]; 60 cell line panel,4.00
same,growth inhibition in words,"[2]; colon cancer KM12, ovarian cancer OVCAR 3, breast cancer MDA-MB-435",selectively and strong inhibitory
same,Log10GI50 MG MID,[2]; mean over panel,−7.37
same,Log10LC50 MG MID,[2]; [19],−4.37 log10M
same,Log10TGI50 MG MID,[2]; [19],−5.12 log10M
same,Log10LC50,"[3]; K-562 (Leukemia), LC50: PG=−50",>−4.30 log10M
same,Log10TGI50,"[3]; K-562 (Leukemia), TGI: PG=0",>−4.30 log10M
same,Log10GI50,"[3]; Leukemia, K-562",<−8.30
same,Log10LC50,"[4]; HOP-62 (Non-Small Cell Lung Cancer), LC50: PG=−50",>−4.30 log10M
same,Log10TGI50,"[4]; HOP-62 (Non-Small Cell Lung Cancer), TGI: PG=0",>−4.30 log10M
same,Log10GI50,"[4]; Non-Small Cell Lung Cancer, HOP-62",−6.96
same,Log10LC50,"[5]; NCI-H460 (Non-Small Cell Lung Cancer), LC50: PG=−50",>−4.30 log10M
same,Log10TGI50,"[5]; NCI-H460 (Non-Small Cell Lung Cancer), TGI: PG=0",>−4.30 log10M
same,Log10GI50,"[5]; Non-Small Cell Lung Cancer, NCI-H460",<−8.30
same,Log10GI50,"[6]; Colon Cancer, HCT-116",<−8.30
same,Log10LC50,"[6]; HCT-116 (Colon Cancer), LC50: PG=−50",>−4.30 log10M
same,Log10TGI50,"[6]; HCT-116 (Colon Cancer), TGI: PG=0",−4.40 log10M
same,Log10GI50,"[7]; CNS Cancer, SF-539",−4.80
same,Log10LC50,"[7]; SF-539 (CNS Cancer), LC50: PG=−50",>−4.30 log10M
same,Log10TGI50,"[7]; SF-539 (CNS Cancer), TGI: PG=0",>−4.30 log10M
same,Log10GI50,"[8]; CNS Cancer, SNB-19",−6.53
same,Log10LC50,"[8]; SNB-19 (CNS Cancer), LC50: PG=−50",>−4.30 log10M
same,Log10TGI50,"[8]; SNB-19 (CNS Cancer), TGI: PG=0",>−4.30 log10M
same,Log10GI50,"[9]; CNS Cancer, SNB-75",−7.40
same,Log10LC50,"[9]; SNB-75 (CNS Cancer), LC50: PG=−50",>−4.30 log10M
same,Log10TGI50,"[9]; SNB-75 (CNS Cancer), TGI: PG=0",>−4.30 log10M
same,Log10LC50,"[10]; MALME-3M (Melanoma), LC50: PG=−50",>−4.30 log10M
same,Log10TGI50,"[10]; MALME-3M (Melanoma), TGI: PG=0",−7.46 log10M
same,Log10GI50,"[10]; Melanoma, MALME-3M",<−8.30
same,Log10GI50,"[11]; Melanoma, SK-MEL-2",−6.43
same,Log10LC50,"[11]; SK-MEL2 (Melanoma), LC50: PG=−50",>−4.30 log10M
same,Log10TGI50,"[11]; SK-MEL-2 (Melanoma), TGI: PG=0",>−4.30 log10M
same,Log10LC50,"[12]; OVCAR-3 (Ovarian Cancer), LC50: PG=−50",>−4.30 log10M
same,Log10TGI50,"[12]; OVCAR-3 (Ovarian Cancer), TGI: PG=0",−8.07 log10M
same,Log10GI50,"[12]; Ovarian Cancer, OVCAR-3",<−8.30
same,Log10LC50,"[13]; OVCAR-8 (Ovarian Cancer), LC50: PG=−50",>−4.30 log10M
same,Log10TGI50,"[13]; OVCAR-8 (Ovarian Cancer), TGI: PG=0",>−4.30 log10M
same,Log10GI50,"[13]; Ovarian Cancer, OVCAR-8",−5.26
same,Log10LC50,[14]; LC50: PG=−50,>−4.30 log10M
same,Log10TGI50,[14]; TGI: PG=0,>−4.30 log10M
same,Log10LC50,"[15]; CAKI-1 (Renal Cancer), LC50: PG=−50",−4.44 log10M
same,Log10TGI50,"[15]; CAKI-1 (Renal Cancer), TGI: PG=0",−6.91 log10M
same,Log10GI50,"[15]; Renal Cancer, CAKI-1",−7.74
same,Log10LC50,"[16]; RXF 393 (Renal Cancer), LC50: PG=−50",>−4.30 log10M
same,Log10TGI50,"[16]; RXF 393 (Renal Cancer), TGI: PG=0",−7.60 log10M
same,Log10GI50,"[16]; Renal Cancer, RXF 393",<−8.30
same,Log10LC50,"[17]; PC-3 (Prostate Cancer), LC50: PG=−50",>−4.30 log10M
same,Log10TGI50,"[17]; PC-3 (Prostate Cancer), TGI: PG=0",−5.75 log10M
same,Log10GI50,"[17]; Prostate Cancer, PC-3",<−8.30
same,Log10GI50,"[18]; Breast Cancer, MDA-MB-435",−8.16
same,Log10LC50,"[18]; MDA-MB-435 (Breast Cancer), LC50: PG=−50",>−4.30 log10M
same,Log10TGI50,"[18]; MDA-MB-435 (Breast Cancer), TGI: PG=0",>−4.30 log10M
